Measurements published in the NIST ThermoML archive (doi:10.1021/je050464i).
“And” between values parts separate entries of the source, which are not always exact repeats. Identical values can stand only once.

Settings: Crystal, Calculated from knudsen effusion weight loss

[Pd] [palladium]
Settings | vapor or sublimation pressure
1473 K | 1e-05 kPa
1498 K | 2e-05 kPa
1523 K | 3e-05 kPa
1548 K | 6e-05 kPa
1573 K | 9e-05 kPa
1576 K | 9e-05 kPa
1598 K | 0.000141 kPa
1600 K | 0.00011 kPa
1626 K | 0.0002 kPa
1648 K | 0.00028 kPa
1650 K | 0.00026 kPa
1660 K | 0.0005 kPa
1673 K | 0.0004 kPa and 0.0004 kPa and 0.0004 kPa
1676 K | 0.00044 kPa
1685 K | 0.00067 kPa
1698 K | 0.0005 kPa and 0.00076 kPa and 0.00058 kPa
1700 K | 0.00061 kPa
1706 K | 0.0009 kPa
1723 K | 0.00108 kPa [middle of 4 runs]
1726 K | 0.00094 kPa
1740 K | 0.0012 kPa
1748 K | 0.0016 kPa and 0.0016 kPa and 0.0012 kPa
1750 K | 0.00131 kPa
1773 K | 0.002 kPa and 0.0022 kPa
1776 K | 0.002 kPa
1798 K | 0.0024 kPa and 0.0029 kPa
1800 K | 0.0027 kPa
1802 K | 0.0024 kPa
1806 K | 0.002 kPa
1823 K | 0.004 kPa
1825 K | 0.0037 kPa
1840 K | 0.0047 kPa
1848 K | 0.0048 kPa
1850 K | 0.0053 kPa
1860 K | 0.0061 kPa
1873 K | 0.008 kPa and 0.0076 kPa
1883 K | 0.0066 kPa
1885 K | 0.0082 kPa
1898 K | 0.01 kPa and 0.0094 kPa
1900 K | 0.0098 kPa
1910 K | 0.0109 kPa
1912 K | 0.0111 kPa
1923 K | 0.013 kPa and 0.014 kPa
1925 K | 0.0125 kPa
1940 K | 0.015 kPa
1942 K | 0.0157 kPa
1948 K | 0.018 kPa and 0.017 kPa and 0.021 kPa
1950 K | 0.0174 kPa and 0.0166 kPa
1954 K | 0.021 kPa
1963 K | 0.02 kPa and 0.0201 kPa
1965 K | 0.0203 kPa and 0.0204 kPa
1970 K | 0.024 kPa
1972 K | 0.022 kPa
1973 K | 0.022 kPa and 0.024 kPa and 0.02 kPa
